For series [1] the following is noted: 293.15 K; 101.33 kPa; Liquid.
Series [2] can be described thus: refractive index (Na D-line) (dimensionless). The settings on record: 293.15 K; 101.33 kPa; Liquid; Standard Abbe refractometry.
Series [3] is described as follows: activity coefficient (dimensionless); of the first substance listed, at infinite dilution; xn = mol fraction of the nth substance listed. The settings on record: Liquid, x1 = 0.

Numbers after ± are expanded uncertainties.

Take `c1ccccc1` [benzene]: the mass density (in general, mass per unit of volume) in series [1] was found to be 878.3 ± 5 kg/m3. Also, the refractive index (as a rule, a measure of how strongly the sample bends light) in series [2] turned out to be 1.5015 ± 0.0007.

As to `c1ccccc1` [benzene] + OCCOCCOCCO, the activity coefficient in series [3] (323.15 K, Chromatography) came out at 4.62 ± 0.21; in series [3] (333.15 K, Chromatography), 4.38 ± 0.2; in series [3] (343.15 K, Chromatography), 4.26 ± 0.19; in series [3] (353.15 K, Chromatography), 4.1 ± 0.19; in series [3] (363.15 K, Chromatography) it was 3.97 ± 0.18; in series [3] (373.1 K, Chromatography) it was 3.92 ± 0.18. Moreover, the activity coefficient in series [3] (383.15 K, Chromatography) was determined as 3.82 ± 0.17; in series [3] (393.15 K, Chromatography), 3.75 ± 0.17.

As to `c1ccccc1` [benzene] + OCCOCCOCCOCCO, the activity coefficient in series [3] (333.15 K, Chromatography) amounted to 2.99 ± 0.14; in series [3] (353.15 K, Chromatography) it was 2.73 ± 0.12; in series [3] (363.15 K, Chromatography), 2.65 ± 0.12; in series [3] (373.1 K, Chromatography), 2.5 ± 0.11; in series [3] (383.15 K, Chromatography) it was 2.41 ± 0.11; in series [3] (393.15 K, Chromatography), 2.37 ± 0.11. In series [3] (403.15 K, Chromatography), the activity coefficient turned out to be 2.27 ± 0.1.

For `CCCCCCCCCC` [decane], the mass density in series [1] came out at 730.2 ± 5 kg/m3. Moreover, the refractive index in series [2] was found to be 1.4113 ± 0.0007.

For `CCCCCCCCCC` [decane] + OCCOCCOCCO, the activity coefficient in series [3] (323.15 K, Chromatography) was 252 ± 12; in series [3] (333.15 K, Chromatography), 219 ± 10; in series [3] (343.15 K, Chromatography), 196 ± 9.3; in series [3] (353.15 K, Chromatography), 162 ± 7.6; in series [3] (363.15 K, Chromatography), 141 ± 6.6; in series [3] (373.1 K, Chromatography), 125 ± 5.9. In addition, the activity coefficient in series [3] (383.15 K, Chromatography) was 107 ± 5; in series [3] (393.15 K, Chromatography) it was 95.6 ± 4.5.

As to `CCCCCCCCCC` [decane] + OCCOCCOCCOCCO, the activity coefficient in series [3] (333.15 K, Chromatography) came out at 123 ± 5.8; in series [3] (353.15 K, Chromatography), 87.8 ± 4.1; in series [3] (363.15 K, Chromatography) it was 75.1 ± 3.5; in series [3] (373.1 K, Chromatography), 64.4 ± 3; in series [3] (383.15 K, Chromatography), 55.2 ± 2.6; in series [3] (393.15 K, Chromatography) it was 51.3 ± 2.4. For the same compound, the activity coefficient in series [3] (403.15 K, Chromatography) worked out at 42.9 ± 2.

`CCc1ccccc1` [ethylbenzene]: the mass density in series [1] is 867.4 ± 5 kg/m3. For the same compound, the refractive index in series [2] came to 1.4955 ± 0.0007.

As to `CCc1ccccc1` [ethylbenzene] + OCCOCCOCCO, the activity coefficient was 10.9 ± 0.5 in series [3] (323.15 K, Chromatography); 10.3 ± 0.47 in series [3] (333.15 K, Chromatography); 9.73 ± 0.45 in series [3] (343.15 K, Chromatography); 9.1 ± 0.42 in series [3] (353.15 K, Chromatography); 8.72 ± 0.4 in series [3] (363.15 K, Chromatography); 8.39 ± 0.38 in series [3] (373.1 K, Chromatography). For the same compound, the activity coefficient in series [3] (383.15 K, Chromatography) is 7.94 ± 0.36; in series [3] (393.15 K, Chromatography), 7.72 ± 0.35.

`CCc1ccccc1` [ethylbenzene] + OCCOCCOCCOCCO: the activity coefficient in series [3] (333.15 K, Chromatography) is 6.39 ± 0.29; in series [3] (353.15 K, Chromatography), 5.63 ± 0.26; in series [3] (363.15 K, Chromatography), 5.31 ± 0.24; in series [3] (373.1 K, Chromatography) it was 5 ± 0.23; in series [3] (383.15 K, Chromatography), 4.73 ± 0.22; in series [3] (393.15 K, Chromatography), 4.58 ± 0.21. Further, the activity coefficient in series [3] (403.15 K, Chromatography) was determined as 4.35 ± 0.2.

As for `CCCCCCC` [heptane], in series [1], the mass density turned out to be 683.5 ± 5 kg/m3. The refractive index in series [2] turned out to be 1.3878 ± 0.0007.

As to `CCCCCCC` [heptane] + OCCOCCOCCO, the activity coefficient in series [3] (323.15 K, Chromatography) turned out to be 93.3 ± 4.4; in series [3] (333.15 K, Chromatography), 82.7 ± 3.9; in series [3] (343.15 K, Chromatography) it was 71.9 ± 3.4; in series [3] (353.15 K, Chromatography), 62.7 ± 2.9; in series [3] (363.15 K, Chromatography) it was 55.3 ± 2.6; in series [3] (373.1 K, Chromatography), 50.2 ± 2.3. Moreover, the activity coefficient in series [3] (383.15 K, Chromatography) amounted to 44.3 ± 2.1; in series [3] (393.15 K, Chromatography), 40.6 ± 1.9.

On to `CCCCCCC` [heptane] + OCCOCCOCCOCCO, for which the activity coefficient stood at 50.2 ± 2.3 in series [3] (333.15 K, Chromatography); 37.6 ± 1.7 in series [3] (353.15 K, Chromatography); 32.1 ± 1.5 in series [3] (363.15 K, Chromatography); 29.8 ± 1.4 in series [3] (373.1 K, Chromatography); 26.1 ± 1.2 in series [3] (383.15 K, Chromatography); 23.1 ± 1.1 in series [3] (393.15 K, Chromatography). In addition, the activity coefficient in series [3] (403.15 K, Chromatography) is 20.8 ± 0.96.

For `CCCCCCCCC` [nonane], in series [1], the mass density came out at 717.8 ± 5 kg/m3. In addition, the refractive index in series [2] is recorded as 1.4057 ± 0.0007.

For `CCCCCCCCC` [nonane] + OCCOCCOCCO, the activity coefficient in series [3] (323.15 K, Chromatography) turned out to be 183 ± 8.6; in series [3] (333.15 K, Chromatography), 156 ± 7.4; in series [3] (343.15 K, Chromatography), 140 ± 6.6; in series [3] (353.15 K, Chromatography), 119 ± 5.6; in series [3] (363.15 K, Chromatography), 103 ± 4.8; in series [3] (373.1 K, Chromatography) it was 93 ± 4.4. The activity coefficient in series [3] (383.15 K, Chromatography) was 81.4 ± 3.8; in series [3] (393.15 K, Chromatography), 73.9 ± 3.5.

Take `CCCCCCCCC` [nonane] + OCCOCCOCCOCCO: the activity coefficient amounted to 92.3 ± 4.3 in series [3] (333.15 K, Chromatography); 64.7 ± 3 in series [3] (353.15 K, Chromatography); 57.4 ± 2.7 in series [3] (363.15 K, Chromatography); 49.3 ± 2.3 in series [3] (373.1 K, Chromatography); 42.9 ± 2 in series [3] (383.15 K, Chromatography); 39.7 ± 1.8 in series [3] (393.15 K, Chromatography). Besides, the activity coefficient in series [3] (403.15 K, Chromatography) was 34.1 ± 1.6.

For the compound `CCCCCCCC` [octane], in series [1], the mass density is 702.6 ± 5 kg/m3. Also, the refractive index in series [2] turned out to be 1.3975 ± 0.0007.

Consider `CCCCCCCC` [octane] + OCCOCCOCCO, for which the activity coefficient in series [3] (323.15 K, Chromatography) amounted to 129 ± 6.1; in series [3] (333.15 K, Chromatography), 113 ± 5.3; in series [3] (343.15 K, Chromatography) it was 99.5 ± 4.7; in series [3] (353.15 K, Chromatography), 86.9 ± 4.1; in series [3] (363.15 K, Chromatography), 75.8 ± 3.5; in series [3] (373.1 K, Chromatography), 68.7 ± 3.2. The activity coefficient in series [3] (383.15 K, Chromatography) worked out at 60.5 ± 2.8; in series [3] (393.15 K, Chromatography), 56.7 ± 2.6.

`CCCCCCCC` [octane] + OCCOCCOCCOCCO: the activity coefficient in series [3] (333.15 K) was found to be 68.1 ± 6.4; in series [3] (353.15 K), 49.5 ± 4.6; in series [3] (363.15 K), 43.2 ± 4; in series [3] (373.1 K), 37.5 ± 3.5; in series [3] (383.15 K), 32.4 ± 3; in series [3] (393.15 K), 31.4 ± 2.9. In addition, in series [3] (403.15 K), the activity coefficient is 25.8 ± 2.4.

Regarding `Cc1ccccc1` [toluene], the mass density in series [1] is listed as 866.7 ± 5 kg/m3. Further, the refractive index in series [2] came out at 1.4962 ± 0.0007.

As for `Cc1ccccc1` [toluene] + OCCOCCOCCO, the activity coefficient in series [3] (323.15 K, Chromatography) amounted to 7.11 ± 0.33; in series [3] (333.15 K, Chromatography), 6.8 ± 0.31; in series [3] (343.15 K, Chromatography) it was 6.51 ± 0.3; in series [3] (353.15 K, Chromatography) it was 6.25 ± 0.29; in series [3] (363.15 K, Chromatography), 5.99 ± 0.27; in series [3] (373.1 K, Chromatography) it was 5.85 ± 0.27. For the same compound, the activity coefficient turned out to be 5.56 ± 0.25 in series [3] (383.15 K, Chromatography) and 5.51 ± 0.25 in series [3] (393.15 K, Chromatography).

Regarding `Cc1ccccc1` [toluene] + OCCOCCOCCOCCO, the activity coefficient in series [3] (333.15 K, Chromatography) was found to be 4.5 ± 0.21; in series [3] (353.15 K, Chromatography), 4.02 ± 0.18; in series [3] (363.15 K, Chromatography), 3.85 ± 0.18; in series [3] (373.1 K, Chromatography), 3.62 ± 0.16; in series [3] (383.15 K, Chromatography) it was 3.46 ± 0.16; in series [3] (393.15 K, Chromatography), 3.37 ± 0.15. For the same compound, the activity coefficient in series [3] (403.15 K, Chromatography) was 3.21 ± 0.15.

As for `OCCOCCOCCO` [triethylene glycol], the mass density in series [1] worked out at 1127.8 ± 5 kg/m3. The refractive index in series [2] was determined as 1.4556 ± 0.0007.
